Tests used:
dopamine D2 = dopamine D2 (Homo sapiens, UniProt P14416); conditions: Igbokwe et al, 2009; read-out: EC50 as D2 agonist; cited from earlier work
eutopic E-MSCs = assay: Endothelial differentiation (CD31) of eutopic E-MSCs in co-culture with HUVECs; format: cell-based, human; conditions: 100 nM, 24-h treatment, 48 h co-culture with HUVECs
ectopic EMSCs = assay: BrdU cell proliferation assay on E-MSCs; format: cell-based, human; conditions: different concentrations, after 24 hours
Protocol: (§1) FIG. 3: Quinagolide effect on EMSCs apoptosis and proliferation. A: Quinagolide concentration-response curve on ectopic EMSCs in both apoptosis (N=1) and proliferation (N=2) assays. B: Effect of two selected quinagolide doses (10^−5 and 10^−7M) on HUVECs (N=1) and ectopic E-MSCs (N=3) apoptosis and proliferation assays (N=2). Data are represented as mean±SD of the indicated number of experiments and normalized to untreated cells (Control). Cells were plated in growth medium at a concentration of 2,500 HUVECs/well and 3,000 E-MSCs/well in a 96-multiwell plate. The day after quinagolide was added to the growth medium at different concentrations after 24 hours. Deoxyribonucleic acid synthesis was detected as incorporation of 5-bromo-2-deoxyuridine (BrdU) into the cellular DNA after 48 hours from cell plaiting, using an enzyme-linked assay kit (Chemicon). Untreated cells were used as control. Data are expressed as the mean±standard deviation (SD) of the media of absorbance of at least three different experiments and normalized to control.

AKT [1] = assay: Western blot of P-AKT in eutopic EMSCs; format: cell-based, human; conditions: eutopic cell lines, 100 nM quinagolide, 24 hours (text; legend 48 h)
Protocol: (§2) FIG. 6: Quinagolide effect on AKT activation. A: Representative western blot analysis and quantification of AKT levels in eutopic and ectopic EMSCs treated for 48 h with 100 nM quinagolide (Q), compared to untreated cells (CTL). B: Representative western blot analysis and quantification of P-AKT levels, normalized to AKT expression, in eutopic and ectopic EMSCs treated for 48 h with 100 nM quinagolide (Q), respect to untreated cells (CTL). C: Representative western blot analysis and quantification of P-AKT levels in HUVECs, ectopic […] basal), and in […] co-culture with HUVECs, treated or not for 24 h with 100 nM quinagolide (Q100 nM). Data are represented as mean±SD of at least two independent experiments, performed on different EMSC lines, and normalized to Vinculin and to untreated cells (CTL). One-way ANOVA was performed: *=p<0.05 and **=p<0.001 vs CTL. Cell pellets were lysed at 4° C. for 15 minutes in RIPA buffer supplemented with protease and phosphatase inhibitors cocktail and PMSF (Sigma-Aldrich). Proteins were quantified using Bradford solution following the manufacturer procedures (Bio-Rad Inc., Berkely, CA, USA) and aliquots of cell lysates containing 50 μg of proteins were run on 4-12% Mini-Protean TGX Stain-Free Gels (Bio-Rad) under reducing conditions and transferred onto PVDF membrane filters using the iBLOT2 system (Life Technologies). […]

[2] = long-term prolactinoma treatment (Schultz et al., 2000; Barlier et al., 2006); cited from earlier work
[3] = tested on: experimentally induced endometriosis; conditions: Akyol et al., 2016; cited from earlier work
HUVECs = assay: BrdU cell proliferation assay on HUVECs; format: cell-based, human; conditions: after 24 hours of quinagolide treatment, 10^-5 and 10^-7 M
Protocol: as §1

AKT [4] = assay: Western blot of P-AKT in E-MSC-HUVEC cocultures; format: cell-based, human; conditions: 100 nM quinagolide 24 h
Protocol: as §2

VEGF = VEGF levels in the E-MSC-HUVEC coculture model; format: cell-based, human; conditions: quinagolide treated coculture
Protocol: An indirect co-culture assembly was obtained plaiting HUVECs and E-MSCs at a ratio of 1:1 (1.5×10^4/cell line) in E-MSC medium in T25 and maintaining the co-culture for 48 h in 37° C. and 5% CO2 atmosphere incubator. HUVECs and E-MSCs cultured alone were used as control for each experiment.

Chain of dopamine D2 (P14416 1-414 isoform P14416-2): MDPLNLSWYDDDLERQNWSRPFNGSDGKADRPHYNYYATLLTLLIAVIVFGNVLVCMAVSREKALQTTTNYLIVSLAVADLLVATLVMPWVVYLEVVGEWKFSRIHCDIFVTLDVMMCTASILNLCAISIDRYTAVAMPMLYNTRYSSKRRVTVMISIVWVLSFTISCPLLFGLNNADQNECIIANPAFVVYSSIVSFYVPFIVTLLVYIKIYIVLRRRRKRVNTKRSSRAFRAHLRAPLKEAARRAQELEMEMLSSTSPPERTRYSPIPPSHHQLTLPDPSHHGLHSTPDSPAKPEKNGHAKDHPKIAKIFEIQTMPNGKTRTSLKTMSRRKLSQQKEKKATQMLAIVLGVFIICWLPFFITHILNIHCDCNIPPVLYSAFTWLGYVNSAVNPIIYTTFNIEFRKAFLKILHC

CCCN1C[C@@H](NS(=O)(=O)N(CC)CC)C[C@@H]2Cc3c(O)cccc3C[C@H]21 [quinagolide, N,N-diethyl-N′-[(3S,4aS,10aR)-6-hydroxy-1-propyl-1,2,3,4,4a,5,10,10a-octahydrobenzo[g]quinolin-3-yl]sulfamide]
EC50 (dopamine D2): 0.058 nM | percentage of CD31 expressing E-MSCs after co-culture (eutopic E-MSCs): no significant alteration | proliferation of E-MSCs (BrdU) (ectopic EMSCs): did not affect proliferation | AKT phosphorylation (AKT [1]): significant decrease | safety and tolerability [2]: safe and well-tolerated | outcome in experimentally induced endometriosis rat model [3]: successfully tested | proliferation of HUVEC cells (HUVECs): did not show alteration | AKT phosphorylation (AKT [4]): reduced | levels of VEGF in the coculture model (VEGF): did not reduce
